From patent US20050209278A1, “Piperidinyl- and piperazinyl-sulfonylmethyl hydroxamic acids and their use as protease inhibitors” (priority 2002, published 2005)
Where a name gives a salt, the structure may show the parent alone.

Molecular target: T1, MMP-2 (Homo sapiens, UniProt P08253)
T1 construct: made in house; host or cells: MMP-2-transfected p2AHT2 cells
T1 sequence (P08253 110-660): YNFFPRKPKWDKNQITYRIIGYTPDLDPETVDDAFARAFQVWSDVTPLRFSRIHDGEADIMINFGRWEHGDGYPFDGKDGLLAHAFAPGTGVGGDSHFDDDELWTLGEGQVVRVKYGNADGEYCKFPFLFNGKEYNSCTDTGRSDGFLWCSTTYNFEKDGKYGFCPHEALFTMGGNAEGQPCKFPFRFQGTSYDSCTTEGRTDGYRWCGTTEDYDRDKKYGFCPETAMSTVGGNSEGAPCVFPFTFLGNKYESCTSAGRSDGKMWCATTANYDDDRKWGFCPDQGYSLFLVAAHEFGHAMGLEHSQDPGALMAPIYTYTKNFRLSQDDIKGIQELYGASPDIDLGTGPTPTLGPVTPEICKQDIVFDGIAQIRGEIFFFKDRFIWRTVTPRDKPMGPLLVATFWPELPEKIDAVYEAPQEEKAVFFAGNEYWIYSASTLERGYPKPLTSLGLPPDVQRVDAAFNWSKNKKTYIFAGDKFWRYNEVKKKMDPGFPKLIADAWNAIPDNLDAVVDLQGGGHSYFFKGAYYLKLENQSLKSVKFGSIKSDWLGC
Assay: In vitro MMP inhibition, IC50 determination (fluorogenic substrate I)
Assay type: biochemical
Conditions: values in parenthesis; 4 μM substrate I; room temperature
Procedure: Several hydroxamic acids and salts thereof were analyzed in in vitro assays to determine their ability to inhibit the MMP cleavage of peptide substrates. […] and IC50 constants were calculated from the assayed hydroxamic acid-MMP interactions.
Human recombinant MMP-1, MMP-2, MMP-9, MMP-13, and MMP-14 were used in this assay. All enzymes were prepared in Assignee's laboratories following usual laboratory procedures. Protocols for the preparation and use of these enzymes are available in the scientific literature. See, e.g., Enzyme Nomenclature (Academic Press, San Diego, Calif., 1992) (and the citations therein). See also, Freije et al., “Molecular cloning and expression of collagenase-3, a novel human matrix metalloproteinase produced by breast carcinomas,” J Biol. Chem., 269(24), 16766-16773 (1994).
The MMP-2 proenzyme was purified by gelatin Sepharose chromatography from MMP-2-transfected p2AHT2 cells provided by Dr. Gregory Goldberg of Washington University (St. Louis, Mo.).
All MMPs were activated using 4-aminophenylmercuric acetate (“APMA”, Sigma Chemical, St. Louis, Mo.) or trypsin. MMP-9 also was activated using human recombinant MMP-3 (purified in Assignee's laboratory following standard cloning and purification techniques).
Two fluorogenic, methoxycoumarin-containing polypeptide substrates were used in the MMP inhibition assays: [drawing 427] Here, “Dpa” is 3-(2,4-dinitrophenyl)-L-2,3-diaminopropionyl group, and “MCA” is 7-methoxycoumarin-4-yl acetyl. Substrate (I) was purchased from Baychem (Redwood City, Calif.), and substrate II was prepared Assignee's laboratory. Substrate I was used in the IC50 determination assays, while substrate II was used in the Ki determination assays. In the absence of MMP inhibitory activity, either substrate is cleaved at the Gly-Leu peptide bond. This cleavage separates the highly fluorogenic peptide from the 2,4-dinitrophenyl quencher, thus resulting in increase of fluorescent intensity.
The stock solutions of the assayed hydroxamic acids (or salts thereof) were prepared in 1% dimethyl sulfoxide (DMSO). These stock solutions were diluted in Buffer A (100 mM Tris-HCl, 100 mM NaCl, 10 mM CaCl2, 0.05% polyoxyethylene 23 lauryl ether, pH 7.5) to obtain solutions with different hydroxamic acid concentrations, i.e., assay solutions with different concentrations of the assayed MMP inhibitory compound. The experiment controls contained the same amount of Buffer A/DMSO as the assayed sample, but contained no hydroxamic acid (or salt thereof).
The assays from which the IC50 determinations were made were performed as follows. The MMPs were activated with either trypsin or APMA (4-aminophenylmercuric acetate, Sigma Chemical, St. Louis, Mo.). The assayed hydroxamic acid samples were incubated in Microfluor™ White Plates (Dynatech, Chantilly, Va.) and analyzed on a Perkin Elmer L550 plate reader (Norwalk, Conn.). The excitation wavelength was 328 nm, and the emission wavelength—415 nm. All samples (assayed hydroxamic acids and controls) were incubated in separate plates at room temperature in the presence of 4 μM of MMP substrate (I). As stated in the previous paragraph, samples containing varying concentrations of the same assayed hydroxamic acid were prepared. Inhibition was measured as a reduction in fluorescent intensity as a function of MMP inhibitor concentration.
The above protocols were used to determine IC50 constants and Ki values for the compounds in Examples 1-27 above. All values in Table 2 are given in nM units. The IC50 measurements are in parenthesis.

| IC50 [nM] | SMILES |
| --- | --- |
| 0.1 | CCCCCc1ccc(C2CCN(S(=O)(=O)C3(C(=O)NO)CCN(CCOC)CC3)CC2)cc1 [Example 15, N-hydroxy-1-(2-methoxyethyl)-4-{[4-(4-pentylpheyl)piperidin-1-yl]sulfonyl}piperidine-4-carboxamide Hydrochloride] |
| < 0.1 | CCCCc1ccc(N2CCN(S(=O)(=O)C3(C(=O)NO)CCN(CCOC)CC3)CC2)cc1 [Example 5, 4-{[4-(4-butylphenyl)piperazin-1-yl]sulfonyl}-N-hydroxy-1-(2-methoxyethyl)piperidine-4-carboxamide Dihydrochloride] |
